# According to PMC13252604, “First Generation Proteolysis Targeting Chimeras (PROTACs) for the Treatment of Progeria” (Advanced Science, 2026):
# How the values were obtained:
# [1] = test system: Lmna^G609G/G609G fibroblasts; experiment: RT-qPCR of senescence markers in mouse progeroid cells; format: cell-based; details: 5 µM
# Protocol: Confocal fluorescence microscopy images are representative of 2 independent experiments. […] Representative cropped immunoblots are shown. […] MW, molecular weight (in kDa) markers. (C) PROTAC 2 decreases senescence‐associated β‐galactosidase (SA‐βgal) activity, interleukin (IL) 1α and p16 senescent markers. Lmna^G609G/G609G (G609G) or Lmna^+/+ (WT) fibroblasts were incubated with vehicle or compound 2 (5 µM). […] Data were analysed using one‐way ANOVA followed by Dunnett's post–hoc test. ^*, p < 0.05; ^**, p < 0.01, ^***, p < 0.001, ^****, p < 0.0001 vs G609G cells. […]
# ferrocyanide, 0.6 mL 5 M NaCl, 0.2 mL 0.2 M MgCl2, (all from Sigma Aldrich) and 6.2 mL of deionized water in a total volume of 20 mL] in the dark in a humidified incubator at 37 °C for 24 h without CO2 supply. Then, an equal volume of the supernatant of each well was transferred to a new 96-well plate for fluorescence measurement. The resultant production of fluorescein was measured using a FluoStar Optima instrument (BMG Labtech) with an excitation of 485 nm and emission at 535 nm. […]
# Total RNA was extracted by RNAeasy Mini Kit (Qiagen) according to the manufacturer instructions and subsequently quantified using the NanoPhotometer N60 (Implen). […] Quantitative real-time PCR was run in the QuantStudio 7FLEX (Applied Biosystems) system and results were normalized according to β-actin quantification. […]
# [2] = test system: HGADFN167 Lmna^G608G/G608G fibroblasts; experiment: Transmission electron microscopy of mitochondria; format: cell-based, human; details: HGADFN167, 5 µM, 20 days
# Protocol: Supporting Figure S6. Basal respiration and electronic microscopy analysis of mitochondria in wild type and HGPS cells. (A) PROTAC 2 increases basal respiration (OCR, oxygen consumption rate) in human progeroid cells. Bar graphs show mean±sem of 2 independent experiments performed in duplicate. HGADFN167 LmnaG608G/G608G (progeroid) and HGADFN168 Lmna+/+ (wild type) fibroblasts, provided by the Progeria Research Foundation, were incubated with vehicle or 2 (5 µM) for 20 days. *, p<0.05 vs G608G cells, one-way ANOVA. […]
# Mitochondria were evaluated for the integrity of the membrane, matrix and cristae, and were classified as mitochondria with normal morphology (black arrows) or damaged mitochondria (red arrows, with alterations in the membrane, presence of inclusions in the matrix and concentric cristae or “onion-like” mitochondria). […]
# Cells were harvested by trypsin, centrifuged and washed with PBS. […] The mixture was then allowed to incubate for 30min at 37 °C in the dark and samples were finally analysed by FACScalibur (Becton Dickinson) flow cytometer […]
# Cells were incubated for 1 h in 1% OsO4 at room temperature and then thoroughly washed with milliQ water. […] The samples were analysed and examined in the transmission electron microscope JEM 1010 at 80 […]
smiles,measurement,setting,value
CC1(C)Oc2cc3oc(=O)ccc3cc2C[C@@H]1OC(=O)CCCCCNc1cccc2c1C(=O)N(C1CCC(=O)NC1=O)C2=O (stereo partly drawn) [compound 2],interleukin (IL) 1α senescent marker,[1],significantly reduced
same,p16 senescent marker,[1],significantly reduced
same,number of healthy mitochondria (electron microscopy),[2],enhances
